Experiments:
Carbonic anhydrase 9 = Carbonic anhydrase 9 (Homo sapiens, UniProt Q16790)
Ca9-22 = test: cells; type: functional; conditions: Homo sapiens, time 48 hrs
Description: Cytotoxicity against human Ca9-22 cells assessed as cell growth inhibition measured after 48 hrs by MTT assay

Carbonic anhydrase 1 [1] = target: T1, Carbonic anhydrase 1 (Homo sapiens, UniProt P00915)
Carbonic anhydrase 12 = Carbonic anhydrase 12 (Homo sapiens, UniProt O43570)
Carbonic anhydrase 1 [2] = target: T1, Carbonic anhydrase 1; remark: listed apart in the source
Carbonic anhydrase 2 = Carbonic anhydrase 2 (Homo sapiens, UniProt P00918)
Carbonic anhydrase 4 = Carbonic anhydrase 4 (Homo sapiens, UniProt P22748)
Carbonic anhydrase 4, sequence (P22748 whole entry): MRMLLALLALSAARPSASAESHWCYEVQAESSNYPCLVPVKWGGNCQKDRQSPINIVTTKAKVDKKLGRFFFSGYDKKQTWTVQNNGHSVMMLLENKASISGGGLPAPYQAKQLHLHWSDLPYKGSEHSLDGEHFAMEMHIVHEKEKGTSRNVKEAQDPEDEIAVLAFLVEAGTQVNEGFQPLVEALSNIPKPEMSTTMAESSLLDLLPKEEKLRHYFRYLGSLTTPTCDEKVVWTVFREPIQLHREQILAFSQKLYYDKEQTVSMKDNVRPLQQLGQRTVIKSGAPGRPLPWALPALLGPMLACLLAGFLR

T1 sequence (P00915 whole entry): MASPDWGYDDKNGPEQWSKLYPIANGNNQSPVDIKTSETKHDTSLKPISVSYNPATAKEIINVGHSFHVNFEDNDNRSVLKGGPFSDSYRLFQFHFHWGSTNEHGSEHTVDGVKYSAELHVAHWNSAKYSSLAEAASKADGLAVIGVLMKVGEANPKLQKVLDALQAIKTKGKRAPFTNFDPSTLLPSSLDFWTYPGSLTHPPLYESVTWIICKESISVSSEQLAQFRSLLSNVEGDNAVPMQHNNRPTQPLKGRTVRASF
Carbonic anhydrase 12, sequence (O43570 whole entry): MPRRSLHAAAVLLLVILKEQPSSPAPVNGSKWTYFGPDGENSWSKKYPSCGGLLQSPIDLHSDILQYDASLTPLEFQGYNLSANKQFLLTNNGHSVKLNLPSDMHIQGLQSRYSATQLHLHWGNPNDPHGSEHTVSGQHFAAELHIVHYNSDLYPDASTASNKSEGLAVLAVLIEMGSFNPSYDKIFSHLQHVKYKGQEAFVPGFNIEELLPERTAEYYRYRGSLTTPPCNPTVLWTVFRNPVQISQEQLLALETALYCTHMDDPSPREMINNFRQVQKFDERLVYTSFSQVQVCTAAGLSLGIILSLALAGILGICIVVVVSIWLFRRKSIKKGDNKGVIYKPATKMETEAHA

Row | Compound | Ki (Carbonic anhydrase 9) | Ki (Carbonic anhydrase 12) | further results
1 | C/C(=N\NC(=O)c1ccc(S(N)(=O)=O)cc1)c1ccc(N2C(=O)C3C(C2=O)C2(Cl)C(Cl)=C(Cl)C3(Cl)C2(Cl)Cl)cc1 (stereo unspecified) | 17.3 nM | – | –
2 | COc1cc(OC)c(C2CC(c3ccc(C(F)(F)F)cc3)=NN2c2ccc(S(N)(=O)=O)cc2)cc1OC (stereo unspecified) | > 44 nM | > 9 nM | CC50 (Ca9-22): 6300 nM; Ki (Carbonic anhydrase 1 [1]): > 230 nM
3 | COc1ccc(C(=O)N2C(=O)/C(=N\NC(=O)CNc3ccc(S(N)(=O)=O)cc3)c3ccccc32)cc1 | – | 22.3 nM | –
4 | NS(=O)(=O)c1cccc(-c2nc(-c3cccnc3)no2)c1 | 1.2 nM | – | –
5 | COc1cc(OC)c(C2CC(c3ccc(Br)cc3)=NN2c2ccc(S(N)(=O)=O)cc2)cc1OC (stereo unspecified) | > 44 nM | > 9 nM | CC50 (Ca9-22): 6300 nM; Ki (Carbonic anhydrase 1 [1]): > 230 nM
6 | CCOC(=O)c1ccc(-c2ccc3c(c2)OS(=O)(=O)CC=C3)cc1 | – | – | Ki (Carbonic anhydrase 1 [2]): > 100000 nM; Ki (Carbonic anhydrase 2): > 100000 nM
7 | C/C(=N\NC(=O)c1ccc(S(N)(=O)=O)cc1)c1ccc(N2C(=O)c3ccccc3C2=O)cc1 | 17.3 nM | – | –
8 | C/C(=N\NC(=O)c1ccc(S(N)(=O)=O)cc1)c1ccc(N2C(=O)c3ccc(C(=O)O)cc3C2=O)cc1 | 17.3 nM | – | –
9 | NS(=O)(=O)c1cccc(N/C=C/C(=O)c2ccc(Br)cc2)c1 | – | – | Ki (Carbonic anhydrase 4): 6.5 nM
10 | NS(=O)(=O)c1cccc(N/C=C/C(=O)c2ccc3ccccc3c2)c1 | – | – | Ki (Carbonic anhydrase 4): 6.5 nM
11 | COc1ccc(C2CC(c3ccccc3)=NN2c2ccc(S(N)(=O)=O)cc2)c(OC)c1OC (stereo unspecified) | > 44 nM | > 9 nM | CC50 (Ca9-22): 6300 nM; Ki (Carbonic anhydrase 1 [1]): > 230 nM
12 | COc1ccc(C2CC(c3ccc(Br)cc3)=NN2c2ccc(S(N)(=O)=O)cc2)c(OC)c1OC (stereo unspecified) | > 44 nM | > 9 nM | CC50 (Ca9-22): 6300 nM; Ki (Carbonic anhydrase 1 [1]): > 230 nM
13 | C/C(=N\NC(=O)c1ccc(S(N)(=O)=O)cc1)c1ccc(N2C(=O)c3cc(Cl)c(Cl)cc3C2=O)cc1 | 169 nM | – | –
14 | CCN1C(=O)/C(=N\Nc2ccc(S(N)(=O)=O)cc2)c2ccccc21 | 23.6 nM | – | –
15 | COc1ccc(C(=O)/C=C/Nc2cccc(S(N)(=O)=O)c2)cc1 | – | – | Ki (Carbonic anhydrase 4): 6.5 nM
16 | CN1C(=O)/C(=N\c2ccc(S(N)(=O)=O)cc2)c2ccccc21 | 13.9 nM | 34.3 nM | –
17 | CC(C)(C)OC(=O)C[C@H](Cc1ccccc1)C(=O)CCC(=O)NCc1ccc(S(N)(=O)=O)cc1 | 1.8 nM | – | –
18 | C/C(=N\O)c1ccc(N2C(=O)c3c(Br)c(Br)c(Br)c(Br)c3C2=O)cc1 | 169 nM | – | –
19 | COc1ccc(C2CC(c3ccc(F)cc3)=NN2c2ccc(S(N)(=O)=O)cc2)c(OC)c1OC (stereo unspecified) | > 44 nM | > 9 nM | CC50 (Ca9-22): 6300 nM; Ki (Carbonic anhydrase 1 [1]): > 230 nM
20 | NS(=O)(=O)c1ccc(CCNC(=O)CSc2nc3ccc(I)cc3c(=O)n2Cc2ccccc2)cc1 | – | 5.2 nM | –

Row | Compound | Ki (Carbonic anhydrase 9) | Ki (Carbonic anhydrase 12) | further results
21 | COc1cc(C2CC(c3ccc(Br)cc3)=NN2c2ccc(S(N)(=O)=O)cc2)cc(OC)c1OC (stereo unspecified) | > 44 nM | > 9 nM | CC50 (Ca9-22): 6300 nM; Ki (Carbonic anhydrase 1 [1]): > 230 nM
22 | C/C(=N\O)c1ccc(N2C(=O)c3ccc(C(=O)O)cc3C2=O)cc1 | 169 nM | – | –
23 | NS(=O)(=O)c1ccc(NCC(=O)N/N=C2\C(=O)Nc3ccccc32)cc1 | – | 34.3 nM | –
24 | C/C(=N\NC(=O)c1ccc(S(N)(=O)=O)cc1)c1ccc(N2C(=O)c3c(Br)c(Br)c(Br)c(Br)c3C2=O)cc1 | 17.3 nM | – | –
25 | COc1cc(C2CC(c3ccc(Cl)cc3)=NN2c2ccc(S(N)(=O)=O)cc2)cc(OC)c1OC (stereo unspecified) | > 44 nM | > 9 nM | CC50 (Ca9-22): 6300 nM; Ki (Carbonic anhydrase 1 [1]): > 230 nM
26 | C/C(=N\O)c1ccc(N2C(=O)c3ccccc3C2=O)cc1 | 169 nM | – | –
27 | C/C(=N\O)c1ccc(N2C(=O)C3C(C2=O)C2(Cl)C(Cl)=C(Cl)C3(Cl)C2(Cl)Cl)cc1 (stereo unspecified) | 169 nM | – | –
28 | COc1cc(OC)c(C2CC(c3ccc(F)cc3)=NN2c2ccc(S(N)(=O)=O)cc2)cc1OC (stereo unspecified) | > 44 nM | > 9 nM | CC50 (Ca9-22): 6300 nM; Ki (Carbonic anhydrase 1 [1]): > 230 nM
29 | COc1cc(C2CC(c3ccccc3)=NN2c2ccc(S(N)(=O)=O)cc2)cc(OC)c1OC (stereo unspecified) | > 44 nM | > 9 nM | CC50 (Ca9-22): 6300 nM; Ki (Carbonic anhydrase 1 [1]): > 230 nM
30 | COc1ccc(C2CC(c3ccc(C(F)(F)F)cc3)=NN2c2ccc(S(N)(=O)=O)cc2)c(OC)c1OC (stereo unspecified) | > 44 nM | > 9 nM | CC50 (Ca9-22): 6300 nM; Ki (Carbonic anhydrase 1 [1]): > 230 nM
31 | CC(C)[C@@H](CC(=O)[C@@H](C)CC(=O)OCc1ccccc1)C(=O)NCc1ccc(S(N)(=O)=O)cc1 | – | 7.4 nM | –
32 | CCOC(=O)c1ccc(-c2ccc3c(c2)C=CCS(=O)(=O)O3)cc1 | – | – | Ki (Carbonic anhydrase 1 [2]): > 100000 nM; Ki (Carbonic anhydrase 2): > 100000 nM
33 | C/C(=N\NC(=O)c1ccc(S(N)(=O)=O)cc1)c1ccc(N2C(=O)C3CC=CCC3C2=O)cc1 (stereo unspecified) | 17.3 nM | – | –
34 | O=S1(=O)C=Cc2cc(-n3nncc3-c3ccc(F)cc3)ccc2O1 | 6.9 nM | – | –
35 | C=CCN1C(=O)/C(=N\c2ccc(S(N)(=O)=O)cc2)c2ccccc21 | 13.9 nM | 34.3 nM | –
36 | O=S1(=O)CC=Cc2cc(-c3ccccc3)ccc2O1 | – | – | Ki (Carbonic anhydrase 1 [2]): > 100000 nM; Ki (Carbonic anhydrase 2): > 100000 nM
37 | COc1cc(OC)c(C2CC(c3cccs3)=NN2c2ccc(S(N)(=O)=O)cc2)cc1OC (stereo unspecified) | > 44 nM | > 9 nM | CC50 (Ca9-22): 6300 nM; Ki (Carbonic anhydrase 1 [1]): > 230 nM
38 | O=S1(=O)CC=Cc2cccc(-c3ccccc3)c2O1 | – | – | Ki (Carbonic anhydrase 1 [2]): > 100000 nM; Ki (Carbonic anhydrase 2): > 100000 nM
39 | O=S1(=O)CC=Cc2ccc(-c3ccc(F)cc3)cc2O1 | – | – | Ki (Carbonic anhydrase 1 [2]): > 100000 nM; Ki (Carbonic anhydrase 2): > 100000 nM
40 | O=S1(=O)CC=Cc2ccc(Br)cc2O1 | – | – | Ki (Carbonic anhydrase 1 [2]): > 100000 nM; Ki (Carbonic anhydrase 2): > 100000 nM

— ChEMBL document CHEMBL5104090, “Recent advances in the medicinal chemistry of carbonic anhydrase inhibitors” (Eur J Med Chem, 2021)
